Values of other authors as cited in patent US6838451B1, “Methods and compositions for the prevention and treatment of inflammation, osteoarthritis, and other degenerative joint diseases” (Pharmanutrients, priority 2000, dated 2005).

What was measured:
[1] = dietary supplement

Row | Molecule | excreted as exhaled carbon dioxide (of the absorbed glucosamine) [%] | excreted in the urine (of the absorbed glucosamine) [%] | remaining in the tissues (of the absorbed glucosamine) [%] | absorbed from the small intestine (sulfate form) | toxicity [1]
1 | N[C@H]1C(O)O[C@H](CO)[C@@H](O)[C@@H]1O (some centres unmarked) [glucosamine] | 65 | 25 | 10 | over 90% | –
2 | conjugated linoleic acid | – | – | – | – | nontoxic
